These results are taken from US10280160B2, “Phthalazinone compounds and methods for the treatment of cystic fibrosis” (FLATLEY DISCOVERY LAB, LLC, priority 2013, dated 2019).

Bounds are passed on as bounds.

Sequence of human F508del CFTR (P13569 other isoform, or with tags, fused parts or gaps del F508-F508): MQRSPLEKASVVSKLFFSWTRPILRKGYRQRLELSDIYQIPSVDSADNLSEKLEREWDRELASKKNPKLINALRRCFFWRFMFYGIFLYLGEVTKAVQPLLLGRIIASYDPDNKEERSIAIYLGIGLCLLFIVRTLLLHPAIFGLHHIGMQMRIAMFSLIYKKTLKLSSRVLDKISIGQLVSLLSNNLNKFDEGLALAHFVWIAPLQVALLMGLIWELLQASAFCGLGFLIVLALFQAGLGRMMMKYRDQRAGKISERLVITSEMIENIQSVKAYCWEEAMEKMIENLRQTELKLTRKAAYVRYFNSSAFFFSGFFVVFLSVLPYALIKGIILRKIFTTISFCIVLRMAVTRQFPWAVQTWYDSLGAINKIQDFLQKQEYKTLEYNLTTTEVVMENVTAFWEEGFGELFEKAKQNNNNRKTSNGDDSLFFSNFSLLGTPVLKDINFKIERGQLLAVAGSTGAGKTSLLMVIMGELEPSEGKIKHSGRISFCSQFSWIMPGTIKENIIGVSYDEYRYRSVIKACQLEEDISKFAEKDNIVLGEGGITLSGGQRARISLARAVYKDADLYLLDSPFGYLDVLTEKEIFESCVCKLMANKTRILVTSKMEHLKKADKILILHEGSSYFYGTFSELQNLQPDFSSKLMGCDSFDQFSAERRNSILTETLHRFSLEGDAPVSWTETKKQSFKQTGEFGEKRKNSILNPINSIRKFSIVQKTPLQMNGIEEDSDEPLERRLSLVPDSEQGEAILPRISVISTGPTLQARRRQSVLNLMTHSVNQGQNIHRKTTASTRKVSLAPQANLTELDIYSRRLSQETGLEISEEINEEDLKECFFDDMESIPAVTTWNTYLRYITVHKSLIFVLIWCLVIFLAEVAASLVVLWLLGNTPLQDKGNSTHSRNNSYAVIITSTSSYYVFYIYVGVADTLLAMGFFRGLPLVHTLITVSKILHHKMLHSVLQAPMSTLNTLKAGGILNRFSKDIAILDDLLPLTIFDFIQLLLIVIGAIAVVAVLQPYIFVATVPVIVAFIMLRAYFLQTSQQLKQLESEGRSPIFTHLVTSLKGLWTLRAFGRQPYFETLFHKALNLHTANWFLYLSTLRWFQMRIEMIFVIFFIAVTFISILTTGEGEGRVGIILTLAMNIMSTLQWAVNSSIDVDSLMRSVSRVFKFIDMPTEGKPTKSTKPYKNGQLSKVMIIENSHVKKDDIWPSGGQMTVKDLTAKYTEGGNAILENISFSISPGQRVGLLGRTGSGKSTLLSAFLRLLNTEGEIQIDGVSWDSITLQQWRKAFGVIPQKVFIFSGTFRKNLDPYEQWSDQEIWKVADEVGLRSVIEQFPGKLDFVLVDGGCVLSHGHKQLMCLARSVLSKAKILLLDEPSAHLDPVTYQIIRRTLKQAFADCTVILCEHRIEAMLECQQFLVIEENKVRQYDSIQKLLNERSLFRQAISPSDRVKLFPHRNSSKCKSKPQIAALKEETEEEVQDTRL

For this assay, the target named is human F508del CFTR (Homo sapiens (Human), UniProt P13569, DEL508-508). Put plainly: CFTR-YFP High Throughput Assay (YFP halide flux, FRT cells). Particulars: EMax normalized to the positive control; FRT cells expressing human F508del CFTR and YFP; read-out: % Efficacy. The class given is cell-based. On the procedure:
Assays for Detecting and Measuring the Effect of Compounds on F508del-CFTR Channels CFTR-YFP Assay-CFTR Corrector Protocol:
This protocol is designed to selectively screen small molecule compounds for F508del CFTR corrector activities in the YFP (yellow fluorescent protein) flux assay. In this protocol, the cells are incubated with testing compounds for 24 hours, washed with PBS, stimulated with forskolin and a standard potentiator, and fluorescence in each plate well is measured kinetically read on a 384-well plate reader, such as the Hamamatsu FDSS-6000.
YFP fluorescence intensity values are acquired at high speed before and after iodide buffer is injected to the assay cells. Iodide enters the cells via active CFTR channels in the plasma membrane, and quenches the YFP fluorescence. The rate of fluorescence quenching is proportionate to the total CFTR activity in the cell membrane. F508del CFTR correctors increase the number of CFTR molecules in the testing cell plasma membrane, and thereby accelerate YFP quenching.
This method was initially developed for bench top plate readers (Galietta, J, Jayaraman, S and Verkman, A S. Cell-based assay for high-throughput quantitative screening of CFTR chloride transport agonists. Am. J. Physiol. Cell Physiol. (2001), 281: C173), and was adapted to the HTS format (Sui J, Cotard S, Andersen J, Zhu P, Staunton J, Lee M, Lin S. Optimization of a Yellow fluorescent protein-based iodide influx high-throughput screening assay for cystic fibrosis transmembrane conductance regulator (CFTR) modulators. Assay Drug Dev Technol. (2010), 8: 656-668).
Fisher Rat Thyroid (FRT) cells stably expressing both human F508del CFTR and a halide-sensitive yellow fluorescent protein (YFP-H148Q/I152L 25,22) (Galietta et al. Am. J. Physiol Cell Physiol 281(5), C1734, 2001) were cultured on plastic surface in Coon's modified Ham's F12 medium supplemented with FBS 10%, L-glutamine 2 mM, penicillin 100 U/ml, and streptomycin 100 μg/ml. G418 (0.75-1.0 mg/ml) and zeocin (3.2 ug/ml) were used for selection of FRT cells expressing F508del CFTR and YFP. For primary screening, FRT cells were plated into 384-well black wall, transparent bottom microtiter plates (Costar; Corning Inc.) at a cell density of 20,000-40,000 per well. Test compound was applied to the cells at varying concentrations ranging from 2 nM-40 μM in either a 2-fold or 3-fold dilution series. Cells were incubated in a cell culture incubator at 37° C. with 5% CO2 for 24-26 h. Assay plates were washed with DPBS media (Thermo, cat # SH30028.02) to remove unbound cells and compound. Stimulation media (25 μL) containing 20 μM Forskolin & 30 μM P3 [6-(Ethyl-phenyl-sulfonyl)-4-oxo-1,4-dihydro-quinoline-3-carboxylic acid 2-methoxy-benzylamide] in Hams F-12 coon's modified media was added to the plate wells and incubated at room temperature for 60-120 min. 25 μL of HEPES-PBS-I buffer (10 mM HEPES, 1 mM MgCl2, 3 mM KCl, 1 mM CaCl2, 150 mM NaI) was then added and fluorescence quench curves (Excitation 500 nm/Emission 540 nm; exposure 136 ms) were immediately recorded on an FDSS-6000 plate reader (Hamamatsu). Quench rates were derived from least squares fitting of the data as described by Sui et al (2010).
CFTR-YFP Assay-CFTR Potentiator Protocol:
This protocol is designed to selectively screen small molecule compounds for F508del CFTR potentiator activities in the YFP (yellow fluorescent protein) flux assay. Such compounds act acutely to stimulate CFTR already expressed on the membrane surface. In this protocol, the cells are incubated at 27° C. for 24 hours to homogeneously boost F508del CFTR expression in the cell membrane (low temperature correction), washed with PBS, treated with test compound, and CFTR activity is stimulated with forskolin for 1-2 hr. Measurement of ion flux is initiated by addition of iodide-containing buffer, and YFP quenching is kinetically recorded using a 384-well plate reader, such as the Hamamatsu FDSS-6000. […]
Turning to `Cc1nc2ccc(N(C)C(=O)Cn3nc(-c4cccc(Cl)c4)c4ccccc4c3=O)cc2o1` [Example 1, 2-(4-(3-chlorophenyl)-1-oxophthalazin-2(1H)-yl)-N-methyl-N-(2-methylbenzo[d]oxazol-6-yl)acetamide], the Emax was above 80%.
For `Cc1nc2ccc(N(C)C(=O)Cn3nc(-c4cccc(F)c4)c4ccccc4c3=O)cc2o1` [Example 2, 2-(4-(3-fluorophenyl)-1-oxophthalazin-2(1H)-yl)-N-methyl-N-(2-methylbenzo[d]oxazol-6-yl)acetamide] the value was 30 to 80%; for `COc1ccc2c(-c3cccc(F)c3)nn(CC(=O)N(C)c3ccc4nc(C)oc4c3)c(=O)c2c1` [Example 3, 2-(4-(3-fluorophenyl)-7-methoxy-1-oxophthalazin-2(1H)-yl)-N-methyl-N-(2-methylbenzo[d]oxazol-6-yl)acetamide], 30 to 80%; for `COc1ccc2c(-c3cccc(Cl)c3)nn(CC(=O)N(C)c3ccc4nc(C)oc4c3)c(=O)c2c1` [Example 4, 2-(4-(3-chlorophenyl)-7-methoxy-1-oxophthalazin-2(1H)-yl)-N-methyl-N-(2-methylbenzo[d]oxazol-6-yl)acetamide], above 80%.
For the compound `COc1ccc2c(-c3cccc(Cl)c3)nn(CC(=O)N(c3ccc4nc(C)oc4c3)C3CC3)c(=O)c2c1` [Example 5, 2-(4-(3-chlorophenyl)-7-methoxy-1-oxophthalazin-2(1H)-yl)-N-cyclopropyl-N-(2-methylbenzo[d]oxazol-6-yl)acetamide], the Emax was above 80%.
Then `[2H]C([2H])([2H])N(C(=O)Cn1nc(-c2cccc(Cl)c2)c2ccc(OC)cc2c1=O)c1ccc2nc(C)oc2c1` [Example 6, 2-(4-(3-chlorophenyl)-7-methoxy-1-oxophthalazin-2(1H)-yl)-N-(methyl-d3)-N-(2-methylbenzo[d]oxazol-6-yl)acetamide], with above 80%.
On to `[2H]C([2H])(C)N(C(=O)Cn1nc(-c2cccc(Cl)c2)c2ccc(OC)cc2c1=O)c1ccc2nc(C)oc2c1` [Example 7, 2-(4-(3-chlorophenyl)-7-methoxy-1-oxophthalazin-2(1H)-yl)-N-(ethyl-1,1-d2)-N-(2-methylbenzo[d]oxazol-6-yl)acetamide], for which the Emax was above 80%.
Then `CCN(C(=O)Cn1nc(-c2cccc(F)c2)c2ccc(OC)cc2c1=O)c1ccc2nc(C)oc2c1` [Example 8, N-ethyl-2-(4-(3-fluorophenyl)-7-methoxy-1-oxophthalazin-2(1H)-yl)-N-(2-methylbenzo[d]oxazol-6-yl)acetamide], with above 80%.
Then `CCN(C(=O)Cn1nc(-c2cccc(Cl)c2)c2ccc(OC)cc2c1=O)c1ccc2nc(C)oc2c1` [Example 9, 2-(4-(3-chlorophenyl)-7-methoxy-1-oxophthalazin-2(1H)-yl)-N-ethyl-N-(2-methylbenzoyl[d]oxazol-6-yl)acetamide], with above 80%.
Then `COc1cc2c(=O)n(CC(=O)N(C)c3ccc4nc(C)oc4c3)nc(-c3cccc(F)c3)c2cc1Cl` [Example 10, 2-(6-chloro-4-(3-fluorophenyl)-7-methoxy-1-oxophthalazin-2(1H)-yl)-N-methyl-N-(2-methylbenzo[d]oxazol-6-yl)acetamide], with 30 to 80%; and `COc1cc2c(=O)n(CC(=O)N(C)c3ccc4nc(C)oc4c3)nc(-c3cccc(Cl)c3)c2cc1Cl` [Example 11, 2-(6-chloro-4-(3-chlorophenyl)-7-methoxy-1-oxophthalazin-2(1H)-yl)-N-methyl-(2-methylbenzo[d]oxazol-6-yl)acetamide], with above 80%; and `COc1ccc2c(-c3cccc(F)c3)nn(CC(=O)N(c3ccc4nc(C)oc4c3)C3CC3)c(=O)c2c1` [Example 12, N-cyclopropyl-2-(4-(3-fluorophenyl)-7-methoxy-1-oxophthalazin-2(1H)-yl)-N-(2-methylbenzo[d]oxazol-6-yl)acetamide], with above 80%.
Take `Cc1nc2ccc(N(C)C(=O)Cn3nc(-c4cccc(F)c4)c4ccc(O)cc4c3=O)cc2o1` [Example 13, 2-(4-(3-fluorophenyl)-7-hydroxy-1-oxophthalazin-2(1H)-yl)-N-methyl-N-(2-methylbenzo[d]oxazol-6-yl)acetamide]: the Emax is above 80%.
Then `Cc1nc2ccc(N(C(=O)Cn3nc(-c4cccc(F)c4)c4ccc(O)cc4c3=O)C3CC3)cc2o1` [Example 14, N-cyclopropyl-2-(4-(3-fluorophenyl)-7-hydroxy-1-oxophthalazin-2(1H)-yl)-N-(2-methylbenzo[d]oxazol-6-yl)acetamide], with 30 to 80%.
Then `Cc1nc2ccc(N(C(=O)Cn3nc(-c4cccc(Cl)c4)c4ccc(O)cc4c3=O)C3CC3)cc2o1` [Example 15, 2-(4-(3-chlorophenyl)-7-hydroxy-1-oxophthalazin-2(1H)-yl)-N-cyclopropyl-N-(2-methylbenzo[d]oxazol-6-yl)acetamide], with above 80%; and `Cc1nc2ccc(N(C)C(=O)Cn3nc(-c4cccc(Cl)c4)c4ccc(O)cc4c3=O)cc2o1` [Example 16, 2-(4-(3-chlorophenyl)-7-hydroxy-1-oxophthalazin-2(1H)-yl)-N-methyl-N-(2-methylbenzo[d]oxazol-6-yl)acetamide], with above 80%; and `CCOc1ccc2c(-c3cccc(F)c3)nn(CC(=O)N(C)c3ccc4nc(C)oc4c3)c(=O)c2c1` [Example 17, 2-(7-ethoxy-4-(3-fluorophenyl)-1-oxophthalazin-2(1H)-yl)-N-methyl-N-(2-methylbenzo[d]oxazol-6-yl)acetamide], with above 80%.
Take `CCOc1ccc2c(-c3cccc(Cl)c3)nn(CC(=O)N(c3ccc4nc(C)oc4c3)C3CC3)c(=O)c2c1` [Example 18, 2-(4-(3-chlorophenyl)-7-ethoxy-1-oxophthalazin-2(1H)-yl)-N-cyclopropyl-N-(2-methylbenzo[d]oxazol-6-yl)acetamide]: the Emax is above 80%.
For `CCOc1ccc2c(-c3cccc(Cl)c3)nn(CC(=O)N(C)c3ccc4nc(C)oc4c3)c(=O)c2c1` [Example 19, 2-(4-(3-chlorophenyl)-7-ethoxy-1-oxophthalazin-2(1H)-yl)-N-methyl-N-(2-methylbenzo[d]oxazol-6-yl)acetamide] the value was above 80%; for `[2H]C([2H])([2H])N(C(=O)Cn1nc(-c2cccc(Cl)c2)c2ccc(OC(C)C)cc2c1=O)c1ccc2nc(C)oc2c1` [Example 20, 2-(4-(3-chlorophenyl)-7-isopropoxy-1-oxophthalazin-2(1H)-yl)-N-(methyl-d3)-N-(2-methylbenzo[d]oxazol-6-yl)acetamide], 30 to 80%.
For `CCOc1ccc2c(-c3cccc(F)c3)nn(CC(=O)N(c3ccc4nc(C)oc4c3)C3CC3)c(=O)c2c1` [Example 21, N-cyclopropyl-2-(7-ethoxy-4-(3-fluorophenyl)-1-oxophthalazin-2(1H)-yl)-N-(2-methylbenzo[d]oxazol-6-yl)acetamide] the value was above 80%; for `[2H]C([2H])([2H])N(C(=O)Cn1nc(-c2cccc(F)c2)c2ccc(OCC)cc2c1=O)c1ccc2nc(C)oc2c1` [Example 22, 2-(7-ethoxy-4-(3-fluorophenyl)-1-oxophthalazin-2(1H)-yl)-N-(methyl-d3)-N-(2-methylbenzo[d]oxazol-6-yl)acetamide], above 80%.
Take `[2H]C([2H])([2H])N(C(=O)Cn1nc(-c2cccc(Cl)c2)c2ccc(OCC3CC3)cc2c1=O)c1ccc2nc(C)oc2c1` [Example 23, 2-(4-(3-chlorophenyl)-7-(cyclopropylmethoxy)-1-oxophthalazin-2(1H)-yl)-N-(methyl-d3)-N-(2-methylbenzo[d]oxazol-6-yl)acetamide]: the Emax lay in the range of 30 to 80%.
